# Source: PMC8318587, “Structure-guided microbial targeting of antistaphylococcal prodrugs” (eLife, 2021)
# How the values were obtained:
# SaFrmB = biological target: T1, SaFrmB (Staphylococcus aureus, UniProt A0A0H3KFB7); experiment: Esterase substrate specificity, fluorogenic SAR library kinetics; format: biochemical; conditions: for kcat/kuncat: SaFrmB; for Km: SaFrmB 15 µg/mL, pH 7.5, 37°C
# T1 construct: made in house; host or cells: E. coli BL21 (DE3)
# T1 sequence (A0A0H3KFB7 1-253): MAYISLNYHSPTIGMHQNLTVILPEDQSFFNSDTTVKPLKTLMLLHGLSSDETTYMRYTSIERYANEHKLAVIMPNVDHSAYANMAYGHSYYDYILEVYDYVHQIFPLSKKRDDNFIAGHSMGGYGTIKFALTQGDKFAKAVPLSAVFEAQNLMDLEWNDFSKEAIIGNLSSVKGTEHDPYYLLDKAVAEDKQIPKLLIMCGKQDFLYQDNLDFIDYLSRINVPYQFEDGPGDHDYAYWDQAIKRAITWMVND
# Description: (§1) Kinetic measurements were performed according to [White et al., 2018] with minor variation. Lyophilized human and mouse sera were resuspended according to manufacturer instructions in highly pure, filtered water at protein concentrations of 85 mg/mL and 70 mg/mL, respectively. One milliliter of resuspended serum was added to a 24 mL mastermix for a final concentration of 31.25 mM Tris pH 7.5, 312.5 mM NaCl, 1.25 mM MgCl2, 12.5% glycerol, and 3.4 mg/mL or 2.8 mg/mL protein for human and mouse serum, respectively. For purified proteins, 5 mL of a 75 µg/mL stock was added to yield a 20 mL mastermix containing 31.25 mM Tris pH 7.5, 312.5 mM NaCl, 1.25 mM MgCl2, 12.5% glycerol, and 18.75 µg/mL protein. Mastermix was stored on ice when not in use. Twenty microliters of mastermix was transferred to a black, 96-well half area microplate (Corning, CLS3993) and prewarmed at 37°C. Fluorogenic substrates were prepared as 10 mM stock solutions in 100% DMSO and were diluted in water to a starting concentration of 500 µM. Enzyme catalyzed substrate hydrolysis was initiated by addition of 5 µL substrate dilution in technical duplicate to the prewarmed serum or protein solution. Final assay concentrations were as follows: 25 mM Tris pH 7.5, 250 mM NaCl, 1 mM MgCl2, 10% glycerol, and protein at a concentration of 2.72 mg/mL (human serum), 2.24 mg/mL (mouse serum), or 15 µg/mL (FrmB, GloB). The resulting change in fluorescence (λex = 485 nm, λem = 520 nm) was followed for 15 min at 37°C, collecting data every 30 s on a FLUOstar Omega microplate reader (BMG Labtech). Fluorescence measurements were converted to molar concentrations using a fluorescein standard curve (2.5 nmol–0.6 pmol). The initial rates of reaction were measured three independent times with two technical replicates per measurement and fit to a line using GraphPad Prism (GraphPad Software, La Jolla, CA). Initial rates of reaction were plotted versus the concentration of substrate and fit to a standard Michaelis–Menten equation (v = Vmax[S]/(Km + [S])), yielding estimates of Vmax and Km. Values for kcat and kcat/Km were calculated based on amount of enzyme added when purified enzymes were used.
# SaGloB = biological target: T2, SaGloB (Staphylococcus aureus, UniProt P0DY75); experiment: as above; format: biochemical; conditions: SaGloB; for Km: fluorogenic ester substrate; for kcat/kuncat: normalised to uncatalysed hydrolysis rate
# T2 sequence (P0DY75 1-207): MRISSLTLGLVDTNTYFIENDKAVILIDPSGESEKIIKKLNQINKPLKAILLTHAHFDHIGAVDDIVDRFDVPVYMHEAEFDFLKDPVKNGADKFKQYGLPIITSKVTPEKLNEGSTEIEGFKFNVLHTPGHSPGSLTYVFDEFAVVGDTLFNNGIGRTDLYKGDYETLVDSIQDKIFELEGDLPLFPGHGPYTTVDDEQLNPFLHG
# Description: as §1
# mouse sera = experiment: Esterase substrate specificity, fluorogenic SAR library kinetics in serum; format: in vitro ADME
# Description: as §1
# human sera = experiment: as above; format: in vitro ADME
# Description: as §1
Structure (SMILES),kcat/kuncat (SaFrmB),Km (SaGloB) [µM],Km (mouse sera) [µM],Km (human sera) [µM],Vmax (human sera) [pmol*min-1*mg sera-1],kcat/kuncat (SaGloB),Vmax (mouse sera) [pmol*min-1*mg sera-1],Km (SaFrmB) [µM]
COC(C)(C)C(=O)OCOc1ccc2c(c1)Oc1cc(OCOC(=O)C(C)(C)OC)ccc1C21OC(=O)c2ccccc21 [10O],4.97 103,> 50,> 50,63.3,1.46,,,
CC(C)OCC(=O)OCOc1ccc2c(c1)Oc1cc(OCOC(=O)COC(C)C)ccc1C21OC(=O)c2ccccc21 [6O],1.49 103,,11.5,54.6,11.7,5.76 103,437,
C=CCOC(C)C(=O)OCOc1ccc2c(c1)Oc1cc(OCOC(=O)C(C)OCC=C)ccc1C21OC(=O)c2ccccc21 (stereo not drawn) [12O],,,> 50,42.2,4.00,1.28 103,,> 50
COC(C)C(=O)OCOc1ccc2c(c1)Oc1cc(OCOC(=O)C(C)OC)ccc1C21OC(=O)c2ccccc21 (stereo not drawn) [7O],3.31 103,,25.9,30.3,5.73,23.6 103,929,
CCOC(C)C(=O)OCOc1ccc2c(c1)Oc1cc(OCOC(=O)C(C)OCC)ccc1C21OC(=O)c2ccccc21 (stereo not drawn) [8O],1.38 103,,> 50,27.7,3.93,6.80 103,,
C=CCSC(C)C(=O)OCOc1ccc2c(c1)Oc1cc(OCOC(=O)C(C)SCC=C)ccc1C21OC(=O)c2ccccc21 (stereo not drawn) [12S],,> 50,> 50,> 50,,,,> 50
CCSCC(=O)OCOc1ccc2c(c1)Oc1cc(OCOC(=O)CSCC)ccc1C21OC(=O)c2ccccc21 [2S],,> 50,> 50,> 50,,,,> 50
CCOCC(=O)OCOc1ccc2c(c1)Oc1cc(OCOC(=O)COCC)ccc1C21OC(=O)c2ccccc21 [2O],1.08 103,,> 50,40.4,43.8,19.4 103,,
O=C(CCc1ccccc1)OCOc1ccc2c(c1)Oc1cc(OCOC(=O)CCc3ccccc3)ccc1C21OC(=O)c2ccccc21 [11C],,> 50,> 50,> 50,,,,> 50
CCCSCC(=O)OCOc1ccc2c(c1)Oc1cc(OCOC(=O)CSCCC)ccc1C21OC(=O)c2ccccc21 [3S],,> 50,> 50,74.3,8.80,,,> 50
CCC(SC)C(=O)OCOc1ccc2c(c1)Oc1cc(OCOC(=O)C(CC)SC)ccc1C21OC(=O)c2ccccc21 (stereo not drawn) [9S],,> 50,> 50,> 50,,,,> 50
CCCCC(=O)OCOc1ccc2c(c1)Oc1cc(OCOC(=O)CCCC)ccc1C21OC(=O)c2ccccc21 [2C],4.74 103,,> 50,71.5,0.356,17.2 103,,
CC(C)CCC(=O)OCOc1ccc2c(c1)Oc1cc(OCOC(=O)CCC(C)C)ccc1C21OC(=O)c2ccccc21 [6C],,,53.5,> 50,,12.7 103,17.6,> 50
COCCC(=O)OCOc1ccc2c(c1)Oc1cc(OCOC(=O)CCOC)ccc1C21OC(=O)c2ccccc21 [4O],1.40 103,,> 50,44.5,5.88,8.42 103,,
CSCC(=O)OCOc1ccc2c(c1)Oc1cc(OCOC(=O)CSC)ccc1C21OC(=O)c2ccccc21 [1S],,,> 50,71.8,30.5,11.4 103,,> 50
CSCCC(=O)OCOc1ccc2c(c1)Oc1cc(OCOC(=O)CCSC)ccc1C21OC(=O)c2ccccc21 [4S],1.40 103,> 50,> 50,27.9,3.81,,,
CCCOCC(=O)OCOc1ccc2c(c1)Oc1cc(OCOC(=O)COCCC)ccc1C21OC(=O)c2ccccc21 [3O],0.911 103,,> 50,22.2,11.7,4.91 103,,
CCC(C)(C)C(=O)OCOc1ccc2c(c1)Oc1cc(OCOC(=O)C(C)(C)CC)ccc1C21OC(=O)c2ccccc21 [10C],,> 50,> 50,> 50,,,,> 50
CCC(OC)C(=O)OCOc1ccc2c(c1)Oc1cc(OCOC(=O)C(CC)OC)ccc1C21OC(=O)c2ccccc21 (stereo not drawn) [9O],,,> 50,112,4.35,14.6 103,,> 50
CCCC(C)C(=O)OCOc1ccc2c(c1)Oc1cc(OCOC(=O)C(C)CCC)ccc1C21OC(=O)c2ccccc21 (stereo not drawn) [8C],,,> 50,> 50,,79.1 103,,> 50
O=C(CSc1ccccc1)OCOc1ccc2c(c1)Oc1cc(OCOC(=O)CSc3ccccc3)ccc1C21OC(=O)c2ccccc21 [11S],,> 50,> 50,> 50,,,,> 50
CC(C)SCC(=O)OCOc1ccc2c(c1)Oc1cc(OCOC(=O)CSC(C)C)ccc1C21OC(=O)c2ccccc21 [6S],2.44 103,,> 50,> 50,,12.9 103,,
CCSC(C)C(=O)OCOc1ccc2c(c1)Oc1cc(OCOC(=O)C(C)SCC)ccc1C21OC(=O)c2ccccc21 (stereo not drawn) [8S],,,> 50,> 50,,9.01 103,,> 50
O=C(COc1ccccc1)OCOc1ccc2c(c1)Oc1cc(OCOC(=O)COc3ccccc3)ccc1C21OC(=O)c2ccccc21 [11O],,> 50,> 50,> 50,,,,> 50
CCSCCC(=O)OCOc1ccc2c(c1)Oc1cc(OCOC(=O)CCSCC)ccc1C21OC(=O)c2ccccc21 [5S],0.910 103,,> 50,31,0.690,4.35 103,,
CSC(C)C(=O)OCOc1ccc2c(c1)Oc1cc(OCOC(=O)C(C)SC)ccc1C21OC(=O)c2ccccc21 (stereo not drawn) [7S],,,> 50,30.2,1.60,7.86 103,,> 50
CCC(C)C(=O)OCOc1ccc2c(c1)Oc1cc(OCOC(=O)C(C)CC)ccc1C21OC(=O)c2ccccc21 (stereo not drawn) [7C],,> 50,> 50,64.2,0.441,,,> 50
CCCC(=O)OCOc1ccc2c(c1)Oc1cc(OCOC(=O)CCC)ccc1C21OC(=O)c2ccccc21 [1C],7.99 103,,> 50,36.2,1.06,21.2 103,,
